Experimental data reported in PubChem BioAssay AID330 (DTP/NCI, 2004).
Values joined by “and” are separate entries in the source; they are usually repeats but may differ in a detail not shown here. Equal entries are not always repeated. Toxic doses and inconclusive results are not listed. Rule for the calls: active = survival T/C of 150% or more; inactive = T/C below 125% in these data.

Test system: P388 leukemia ip, CD2F1 mice, survival T/C
Assay: NCI In Vivo Anticancer Drug Screen. Data for tumor model P388 Leukemia (intraperitoneal) in CD2F1 (CDF1) mice
Settings: endpoint: median survival time, higher = longer survival
Procedure, shortened: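 Mice carrying the transplanted tumor received test compound or vehicle. Survival was recorded in each group, and the value is the treated-group measurement divided by that of the vehicle-treated control group.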

[1] = dose: 50.0 mg/kg/injection, schedule: Q01DX005 (ip), vehicle: Klucel (hydroxypropylcellulose) (HPC)
[2] = dose: 100.0 mg/kg/injection, schedule: Q01DX005 (ip), vehicle: Klucel (hydroxypropylcellulose) (HPC)
[3] = dose: 200.0 mg/kg/injection, schedule: Q01DX005 (ip), vehicle: Klucel (hydroxypropylcellulose) (HPC)
[4] = dose: 50.0 mg/kg/injection, schedule: Q01DX005 (ip), vehicle: saline with Tween-80
[5] = dose: 100.0 mg/kg/injection, schedule: Q01DX005 (ip), vehicle: saline with Tween-80
[6] = dose: 200.0 mg/kg/injection, schedule: Q01DX005 (ip), vehicle: saline with Tween-80
[7] = dose: 12.5 mg/kg/injection, schedule: Q01DX009 (ip), vehicle: saline with Tween-80
[8] = dose: 25.0 mg/kg/injection, schedule: Q01DX009 (ip), vehicle: saline with Tween-80
[9] = dose: 50.0 mg/kg/injection, schedule: Q01DX009 (ip), vehicle: saline with Tween-80
[10] = dose: 100.0 mg/kg/injection, schedule: Q01DX009 (ip), vehicle: Klucel (hydroxypropylcellulose) (HPC)
[11] = dose: 200.0 mg/kg/injection, schedule: Q01DX009 (ip), vehicle: Klucel (hydroxypropylcellulose) (HPC)
[12] = dose: 15.0 mg/kg/injection, schedule: Q01DX005 (ip), vehicle: saline

Measured: T/C

OC[CH2][Hg][Br]
inactive: dose: 0.37 mg/kg/injection, schedule: Q01DX009 (ip), vehicle: saline 101 % of control | dose: 0.75 mg/kg/injection, schedule: Q01DX009 (ip), vehicle: saline 101 % of control | dose: 1.5 mg/kg/injection, schedule: Q01DX009 (ip), vehicle: saline 101 % of control | dose: 3.0 mg/kg/injection, schedule: Q01DX009 (ip), vehicle: saline 118 % of control | dose: 6.0 mg/kg/injection, schedule: Q01DX009 (ip), vehicle: saline 104 % of control

O=c1c2oc3ccccc3c2cnn1CCl
inactive: [1] 103 % of control | [2] 103 % of control | [3] 96 % of control

O=C(O)C1CCN1C1CCCCC1 (configuration not stated)
inactive: dose: 100.0 mg/kg/injection, schedule: Q01DX009 (ip), vehicle: saline sonified 90 % of control | dose: 200.0 mg/kg/injection, schedule: Q01DX009 (ip), vehicle: saline sonified 100 % of control | dose: 400.0 mg/kg/injection, schedule: Q01DX009 (ip), vehicle: saline sonified 104 % of control

O=C1SCCC1n1c(=O)c1=O (configuration not stated)
inactive: dose: 25.0 mg/kg/injection, schedule: Q01DX005 (ip), vehicle: saline with Tween-80 100 % of control | [4] 98 % of control | dose: 60.0 mg/kg/injection, schedule: Q01DX005 (ip), vehicle: saline with Tween-80 94 % of control | [5] 105 % of control | dose: 120.0 mg/kg/injection, schedule: Q01DX005 (ip), vehicle: saline with Tween-80 99 % of control | [6] 96 % of control | dose: 240.0 mg/kg/injection, schedule: Q01DX005 (ip), vehicle: saline with Tween-80 90 % of control | dose: 400.0 mg/kg/injection, schedule: Q01DX005 (ip), vehicle: saline with Tween-80 99 % of control

N#CCCCCCCCCCCCCCC1C=CCC1 (configuration not stated)
inactive: dose: 100.0 mg/kg/injection, schedule: Q01DX001 (ip), vehicle: saline 106 % of control | dose: 200.0 mg/kg/injection, schedule: Q01DX001 (ip), vehicle: saline 99 % of control | dose: 400.0 mg/kg/injection, schedule: Q01DX001 (ip), vehicle: saline 101 % of control

CCOC(=O)NNc1cccc(Cl)c1
inactive: dose: 50.0 mg/kg/injection, schedule: Q01DX009 (ip), vehicle: saline 100 % of control | dose: 100.0 mg/kg/injection, schedule: Q01DX009 (ip), vehicle: saline 100 % of control

CCOC(=O)C(CCCCn1cnc2ncnc(Cl)c21)(NC(C)=O)C(=O)OCC
inactive: dose: 100.0 mg/kg/injection, schedule: Q01DX001 (ip), vehicle: Klucel (hydroxypropylcellulose) (HPC) 105 % of control | dose: 200.0 mg/kg/injection, schedule: Q01DX001 (ip), vehicle: Klucel (hydroxypropylcellulose) (HPC) 107 % of control | dose: 400.0 mg/kg/injection, schedule: Q01DX001 (ip), vehicle: Klucel (hydroxypropylcellulose) (HPC) 102 % of control

CCC(CNc1cc(OC)cc2cccnc12)NC1CCCCC1 (configuration not stated)
inactive: dose: 12.5 mg/kg/injection, schedule: Q01DX005 (ip), vehicle: saline 102 % of control | dose: 25.0 mg/kg/injection, schedule: Q01DX005 (ip), vehicle: saline 99 % of control | dose: 50.0 mg/kg/injection, schedule: Q01DX005 (ip), vehicle: saline 100 % of control and 102 % of control

S=C(N=Nc1ccccc1)NNc1ccccc1
inactive: [7] 100 % of control | [8] 95 % of control | [9] 90 % of control | dose: 100.0 mg/kg/injection, schedule: Q04DX003 (ip), vehicle: saline with Tween-80 90 % of control | dose: 200.0 mg/kg/injection, schedule: Q04DX003 (ip), vehicle: saline with Tween-80 86 % of control | dose: 400.0 mg/kg/injection, schedule: Q04DX003 (ip), vehicle: saline with Tween-80 100 % of control

S=C1SCN(Cc2ccccc2)CN1Cc1ccccc1
inactive: [9] 100 % of control | dose: 100.0 mg/kg/injection, schedule: Q01DX009 (ip), vehicle: saline with Tween-80 93 % of control | dose: 200.0 mg/kg/injection, schedule: Q01DX009 (ip), vehicle: saline with Tween-80 89 % of control

CCOC(=O)c1cc[nH]c1CC(=O)OC
inactive: dose: 100.0 mg/kg/injection, schedule: Q01DX001 (ip), vehicle: saline with Tween-80 99 % of control | dose: 200.0 mg/kg/injection, schedule: Q01DX001 (ip), vehicle: saline with Tween-80 96 % of control | dose: 400.0 mg/kg/injection, schedule: Q01DX001 (ip), vehicle: saline with Tween-80 100 % of control

COCC1(C)CCCC2(C)C3=C(CCC(OC(C)=O)C3)CCC12 (configuration not stated)
inactive: dose: 100.0 mg/kg/injection, schedule: Q04DX003 (ip), vehicle: suspension in saline 100 % of control | dose: 200.0 mg/kg/injection, schedule: Q04DX003 (ip), vehicle: suspension in saline 102 % of control | dose: 400.0 mg/kg/injection, schedule: Q04DX003 (ip), vehicle: suspension in saline 102 % of control

c1ccc2c(c1)cc1c3nncn3ncn21
inactive: [7] 100 % of control | [8] 92 % of control | [9] 93 % of control

O=C1C2C3C=CC(O3)C2C(=O)N1/N=C/c1cccc2ccccc12 (configuration not stated)
inactive: [4] 99 % of control | [5] 96 % of control | [6] 89 % of control

CN(C)c1ccc(C(=O)Cc2ccc3ccccc3n2)cc1
inactive: dose: 50.0 mg/kg/injection, schedule: Q01DX009 (ip), vehicle: Klucel (hydroxypropylcellulose) (HPC) 92 % of control | [10] 89 % of control | [11] 102 % of control

C=CC(=O)Nc1ccc2c(c1)OCCOCCOCCO2
inactive: [4] 101 % of control | [5] 102 % of control | [6] 100 % of control

S=C(N/N=C/c1ccc(Cl)cc1)Nc1ccccc1
inactive: [10] 101 % of control | [11] 100 % of control | dose: 400.0 mg/kg/injection, schedule: Q01DX009 (ip), vehicle: Klucel (hydroxypropylcellulose) (HPC) 93 % of control

COc1cc(OC)c(C(=O)C(CN(C)C)CN(C)C)cc1OC
inactive: dose: 1.87 mg/kg/injection, schedule: Q01DX005 (ip), vehicle: saline 113 % of control | dose: 3.75 mg/kg/injection, schedule: Q01DX005 (ip), vehicle: other 113 % of control | dose: 3.75 mg/kg/injection, schedule: Q01DX005 (ip), vehicle: saline 107 % of control | dose: 7.5 mg/kg/injection, schedule: Q01DX005 (ip), vehicle: other 108 % of control | dose: 7.5 mg/kg/injection, schedule: Q01DX005 (ip), vehicle: saline 106 % of control | [12] 107 % of control | dose: 120.0 mg/kg/injection, schedule: Q01DX005 (ip), vehicle: saline 124 % of control

O=C(Nc1ccccc1)c1nn(-c2cc(S(=O)(=O)[O-])ccc2Cl)[n+](-c2ccccc2Cl)n1
inactive: dose: 60.0 mg/kg/injection, schedule: Q01DX005 (ip), vehicle: Klucel (hydroxypropylcellulose) (HPC) 101 % of control | dose: 120.0 mg/kg/injection, schedule: Q01DX005 (ip), vehicle: Klucel (hydroxypropylcellulose) (HPC) 101 % of control

c1cc2n[pH]nc2cn1 (configuration not stated)
inactive: [12] 120 % of control | dose: 30.0 mg/kg/injection, schedule: Q01DX005 (ip), vehicle: saline 107 % of control

CCCCOc1cc(N)nc2ccccc12
inactive: dose: 12.5 mg/kg/injection, schedule: Q04DX002 (ip), vehicle: saline with Tween-80 95 % of control | dose: 25.0 mg/kg/injection, schedule: Q04DX002 (ip), vehicle: saline with Tween-80 100 % of control | dose: 50.0 mg/kg/injection, schedule: Q04DX002 (ip), vehicle: saline with Tween-80 99 % of control

O=C1CCOCCCOCCC(=O)OCCCO1
inactive: [1] 104 % of control | [2] 101 % of control | [3] 101 % of control
